Results reported in the NIST ThermoML archive (doi:10.1016/j.jct.2018.11.020).

Assays:
[1] = refractive index (Na D-line) (dimensionless); conditions: 101.33 kPa, Liquid, Standard Abbe refractometry
[2] = 101.33 kPa, Liquid; for viscosity: Concentric cylinders viscometry; for mass density: Vibrating tube method

Cc1ccccc1 [toluene]
Conditions | mass density, [2] [kg/m3] | refractive index, [1] | viscosity, [2] [mPa·s]
288.15 K | 871.5 | 1.49921 | 0.6284
293.15 K | 866.84 | 1.49631 | 0.5926
298.15 K | 862.18 | 1.49338 | 0.5698
303.15 K | 857.51 | 1.49042 | 0.541
308.15 K | 852.83 | 1.48751 | 0.514
313.15 K | 848.15 | 1.48461 | 0.4854
318.15 K | 843.44 | 1.48171 | 0.4646
323.15 K | 838.73 | 1.47889 | 0.4421
328.15 K | 834 | 1.47596 | 0.4209
333.15 K | 829.25 | 1.47305 | 0.4035

Cc1cccc(C)c1 [1,3-dimethylbenzene]
Conditions | mass density, [2] [kg/m3] | refractive index, [1] | viscosity, [2] [mPa·s]
288.15 K | 868.56 | 1.49868 | 0.6601
293.15 K | 864.27 | 1.49604 | 0.6322
298.15 K | 859.98 | 1.49339 | 0.5969
303.15 K | 855.68 | 1.49074 | 0.5674
308.15 K | 851.36 | 1.4881 | 0.5396
313.15 K | 847.03 | 1.48545 | 0.5112
318.15 K | 842.69 | 1.4828 | 0.4888
323.15 K | 838.33 | 1.48017 | 0.4657
328.15 K | 833.95 | 1.47757 | 0.4439
333.15 K | 829.56 | 1.47489 | 0.4273

Cc1ccccc1C [1,2-dimethylbenzene]
Conditions | mass density, [2] [kg/m3] | refractive index, [1] | viscosity, [2] [mPa·s]
288.15 K | 883.91 | 1.50706 | 0.869
293.15 K | 879.72 | 1.5044 | 0.8175
298.15 K | 875.51 | 1.50173 | 0.7661
303.15 K | 871.3 | 1.49906 | 0.722
308.15 K | 867.07 | 1.49644 | 0.6809
313.15 K | 862.83 | 1.49383 | 0.6437
318.15 K | 858.57 | 1.49124 | 0.608
323.15 K | 854.3 | 1.48869 | 0.5757
328.15 K | 850.01 | 1.48604 | 0.5458
333.15 K | 845.71 | 1.48345 | 0.5221

Cc1ccc(C)cc1 [1,4-dimethylbenzene]
Conditions | mass density, [2] [kg/m3] | refractive index, [1] | viscosity, [2] [mPa·s]
288.15 K | 865.31 | 1.4977 | 0.6862
293.15 K | 860.97 | 1.49493 | 0.6515
298.15 K | 856.63 | 1.49221 | 0.6168
303.15 K | 852.27 | 1.48939 | 0.5848
308.15 K | 847.91 | 1.48658 | 0.5548
313.15 K | 843.53 | 1.48391 | 0.5247
318.15 K | 839.14 | 1.48126 | 0.5001
323.15 K | 834.74 | 1.47853 | 0.4753
328.15 K | 830.32 | 1.47608 | 0.4521
333.15 K | 825.88 | 1.47328 | 0.4342
